pIC50: −log10 of the molar value.
system: IFNα-Induced STAT Phosphorylation in Human Whole Blood; assay: IFNα-Induced STAT Phosphorylation in Human Whole Blood; type: cell-based; conditions: 1 h incubation with compound, 1000 U/mL recombinant human IFNα A/D for 15 min, pSTAT5 (pY694) median fluorescence intensity in CD3 positive population, read-out: hWB IC50

SMILES | pIC50
[2H]C([2H])([2H])NC(=O)c1nnc(Nc2cn(CC)nn2)cc1Nc1cc(F)cc(-c2ncccn2)c1OC [Example 92, 6-((1-ethyl-1H-1,2,3-triazol-4-yl)amino)-4-((5-fluoro-2-methoxy-3-(pyrimidin-2-yl)phenyl)amino)-N-(methyl-d3)pyridazine-3-carboxamide] | 6.87
[2H]C([2H])([2H])NC(=O)c1nnc(Nc2cnn(CC)n2)cc1Nc1cccc(-c2ncc(F)cn2)c1OC [Example 87, 6-((2-ethyl-2H-1,2,3-triazol-4-yl)amino)-4-((3-(5-fluoropyrimidin-2-yl)-2-methoxyphenyl)amino)-N-(methyl-d3)pyridazine-3-carboxamide] | 6.46
[2H]C([2H])([2H])NC(=O)c1nnc(Nc2ccc(C(C)(C)O)cn2)cc1Nc1cc(F)cc(-c2ncccn2)c1OC [Example 104, 4-((5-fluoro-2-methoxy-3-(pyrimidin-2-yl)phenyl)amino)-6-((5-(2-hydroxypropan-2-yl)pyridin-2-yl)amino)-N-(methyl-d3)pyridazine-3-carboxamide] | 7.39
[2H]C([2H])([2H])NC(=O)c1nnc(Nc2cn(C)nn2)cc1Nc1cccc(-c2ncc(F)cn2)c1OC [Example 91, 4-((3-(5-fluoropyrimidin-2-yl)-2-methoxyphenyl)amino)-N-(methyl-d3)-6-((1-methyl-1H-1,2,3-triazol-4-yl)amino)pyridazine-3-carboxamide] | 6.78
[2H]C([2H])([2H])NC(=O)c1nnc(Nc2cc(C(C)(C)O)ccn2)cc1Nc1cc(F)cc(-c2ncccn2)c1OC [Example 105, 4-((5-fluoro-2-methoxy-3-(pyrimidin-2-yl)phenyl)amino)-6-((4-(2-hydroxypropan-2-yl)pyridin-2-yl)amino)-N-(methyl-d3)pyridazine-3-carboxamide] | 6.76
[2H]C([2H])([2H])NC(=O)c1nnc(NC(=O)C2CC2)cc1Nc1cccc(-c2ccc(C(C)(O)CC)nn2)c1OC (centres unmarked) [Example 23, 6-(cyclopropanecarboxamido)-4-((3-(6-(2-hydroxybutan-2-yl)pyridazin-3-yl)-2-methoxyphenyl)amino)-N-(methyl-d3)pyridazine-3-carboxamide] | 7.49
[2H]C([2H])([2H])NC(=O)c1nnc(Nc2cc(=O)n(C)cn2)cc1Nc1cccc(-c2ncc(F)cn2)c1OC [Example 106, 4-((3-(5-fluoropyrimidin-2-yl)-2-methoxyphenyl)amino)-N-(methyl-d3)-6-((1-methyl-6-oxo-1,6-dihydropyrimidin-4-yl)amino)pyridazine-3-carboxamide] | 6.82
[2H]C([2H])([2H])NC(=O)c1nnc(NC(=O)C2CC2)cc1Nc1cccc(-c2ccc(C(=O)N3CCCC3)cn2)c1OC [Example 45] | 6.66
[2H]C([2H])([2H])NC(=O)c1nnc(Nc2ccc(OC)nn2)cc1Nc1cccc(-c2ncc(F)cn2)c1OC [Example 97, 4-((3-(5-fluoropyrimidin-2-yl)-2-methoxyphenyl)amino)-6-((6-methoxypyridazin-3-yl)amino)-N-(methyl-d3)pyridazine-3-carboxamide] | 7.10
[2H]C([2H])([2H])NC(=O)c1nnc(Nc2cn(C)nn2)cc1Nc1cc(F)cc(-c2ncccn2)c1OC [Example 93, 4-((5-fluoro-2-methoxy-3-(pyrimidin-2-yl)phenyl)amino)-N-(methyl-d3)-6-((1-methyl-1H-1,2,3-triazol-4-yl)amino)pyridazine-3-carboxamide] | 6.38

Continued, values first:

pIC50 | SMILES
5.98 | [2H]C([2H])([2H])NC(=O)c1cnc(NC(=O)C2CC2)cc1Nc1cccc(-c2cnc(-n3cncn3)cn2)c1OC [Example 60, 4-((3-(5-(1H-1,2,4-triazol-1-yl)pyrazin-2-yl)-2-methoxyphenyl)amino)-6-(cyclopropanecarboxamido)-N-(methyl-d3)nicotinamide]
7.44 | [2H]C([2H])([2H])NC(=O)c1nnc(NC(=O)C2CC2)cc1Nc1cccc(-c2cnc(C3(O)CCOC3)cn2)c1OC (centres unmarked) [Example 34, 6-(cyclopropanecarboxamido)-4-((3-(5-(3-hydroxytetrahydrofuran-3-yl)pyrazin-2-yl)-2-methoxyphenyl)amino)-N-(methyl-d3)pyridazine-3-carboxamide]
7.25 | [2H]C([2H])([2H])NC(=O)c1cnc(Nc2ccn(C3CC3)n2)cc1Nc1cccc(-c2ncccn2)c1OC [Example 69, 6-((1-cyclopropyl-1H-pyrazol-3-yl)amino)-4-((2-methoxy-3-(pyrimidin-2-yl)phenyl)amino)-N-(methyl-d3)nicotinamide]
7.15 | [2H]C([2H])([2H])NC(=O)c1nnc(Nc2ccc(C3CC3)nn2)cc1Nc1cccc(-c2ncc(F)cn2)c1OC [Example 99, 6-((6-cyclopropylpyridazin-3-yl)amino)-4-((3-(5-fluoropyrimidin-2-yl)-2-methoxyphenyl)amino)-N-(methyl-d3)pyridazine-3-carboxamide]
6.46 | [2H]C([2H])([2H])NC(=O)c1nnc(NC(=O)C2CCC2)cc1Nc1cccc(-c2ncccn2)c1OC [Example 4, 6-(cyclobutanecarboxamido)-4-((2-methoxy-3-(pyrimidin-2-yl)phenyl)amino)-N-(methyl-d3)pyridazine-3-carboxamide]
7.62 | [2H]C([2H])([2H])NC(=O)c1nnc(NC(=O)C2CC2)cc1Nc1cccc(-c2ncc(C3(O)CCOC3)cn2)c1OC (centres unmarked) [Example 31, 6-(cyclopropanecarboxamido)-4-((3-(5-(3-hydroxytetrahydrofuran-3-yl)pyrimidin-2-yl)-2-methoxyphenyl)amino)-N-(methyl-d3)pyridazine-3-carboxamide]
6.67 | [2H]C([2H])([2H])NC(=O)c1nnc(NC(=O)C2CC2)cc1Nc1cccc(-c2ncc(S(C)(=O)=O)cn2)c1OC [Example 111]
6.84 | [2H]C([2H])([2H])NC(=O)c1cnc(Nc2cc(Cl)n(C)n2)cc1Nc1cccc(-c2ncc(F)cn2)c1OC [Example 66, 6-((5-chloro-1-methyl-1H-pyrazol-3-yl)amino)-4-((3-(5-fluoropyrimidin-2-yl)-2-methoxyphenyl)amino)-N-(methyl-d3)nicotinamide]
6.71 | [2H]C([2H])([2H])NC(=O)c1nnc(NC(=O)C2CC2)cc1Nc1cc(F)cc(-c2ncccn2)c1OC [Example 7, 6-(cyclopropanecarboxamido)-4-((5-fluoro-2-methoxy-3-(pyrimidin-2-yl)phenyl)amino)-N-(methyl-d3)pyridazine-3-carboxamide]
6.17 | [2H]C([2H])([2H])NC(=O)c1cnc(NC(=O)C2CC2)cc1Nc1cccc(-c2ncc(F)cc2C#N)c1OC [Example 115]
6.62 | [2H]C([2H])([2H])NC(=O)c1nnc(NC(=O)C2CC2)cc1Nc1cccc(-c2ncc(F)cc2C#N)c1OC [Example 114]
6.93 | [2H]C([2H])([2H])NC(=O)c1nnc(NC(=O)C2CC2)cc1Nc1cccc(-c2cnc(N(C)C(C)=O)cn2)c1OC [Example 56, 6-(Cyclopropanecarboxamido)-4-((2-methoxy-3-(5-(N-methylacetamido)pyrazin-2-yl)phenyl)amino)-N-(methyl-d3)pyridazine-3-carboxamide]
6.96 | [2H]C([2H])([2H])NC(=O)c1nnc(NC(=O)C2CC2)cc1Nc1cc(F)cc(-c2ccc(C(=O)N(C)C)cn2)c1OC [Example 44, 6-(cyclopropanecarboxamido)-4-((3-(5-(dimethylcarbamoyl)pyridin-2-yl)-5-fluoro-2-methoxyphenyl)amino)-N-(methyl-d3)pyridazine-3-carboxamide]

Source: patent US12479831B2, “Substituted N(-methyl-D3)pyridazine-3-carboxamide or M-(methyl-D3)-nicotinamide compounds as IL-12, IL-23 and/or IFNα modulators” (BRISTOL-MYERS SQUIBB COMPANY, priority 2020, dated 2025)
